Test results taken from patent publication US8598118B2, “Hepatocyte growth factor mimics as therapeutic agents” (Washington State University, priority 2011, dated 2013).
Where “and” joins values, the source holds several entries; their conditions need not be identical. Equal entries are not always repeated.

How the values were obtained:
hippocampal neurons [1] = assay: Spinogenesis in mRFP-β-actin transfected dissociated hippocampal neurons; format: cell-based, rat; details: 5 days
Experimental: (§1) Hippocampal neurons (2×10^5 cells per square cm) were cultured from P1 Sprague Dawley rats on plates coated with poly-L-lysine from Sigma (St. Louis, Mo.; molecular weight 300,000). Hippocampal neurons were maintained in Neurobasal A media from Invitrogen (Carlsbad, Calif.) supplemented with B27 from Invitrogen, 0.5 mM L-glutamine, and […] cytosine-D-arabinofuranoside from Sigma added at 2 days in vitro. Hippocampal neurons were then cultured a further 3-7 days, at which time they were either transfected or treated with various pharmacological reagents as described in (Wayman, Davare et al. 2008).
Neurons were transfected with mRFP-β-actin on day in vitro 6 (DIV6) using LipofectAMINE™ 2000 (Invitrogen) according to the manufacturer's protocol. This protocol yielded the desired 3-5% transfection efficiency thus enabling the visualization of individual neurons. Higher efficiencies obscured the dendritic arbor of individual neurons. Expression of fluorescently tagged actin allowed clear visualization of dendritic spines, as dendritic spines are enriched in actin. On DIV7 the cells were treated with vehicle (H20) or peptides (as described in the text) added to media. On DIV 12 the neurons were fixed (4% paraformaldehyde, 3% sucrose, 60 mM PIPES, 25 mM HEPES, 5 mM EGTA, 1 mM MgCl2, pH 7.4) for 20 min at room temperature and mounted. Slides were dried for at least 20 hours at 4° C. and fluorescent images were obtained with Slidebook 4.2 Digital Microscopy Software driving an Olympus IX81 inverted confocal microscope with a 60× oil immersion lens, NA 1.4 and resolution 0.280 μm Dendritic spine density was measured on primary and secondary dendrites at a distance of at least 150 μm from the soma. Five 50 μm long segments of dendrite from at least 10 neurons per data point were analyzed for each data point reported. Each experiment was repeated at least three times using independent culture preparations. Dendrite length was determined using the National Institutes of Health's Image J 1.41o program (NIH, Bethesda, Md.) and the neurite tracing program Neuron J (Meijering, Jacob et al. 2004) Spines were manually counted.
as §1, with “centimeter)” for “cm)”, “P1-2” for “P1”, “the text or figure legends.” for “(Wayman, Davare et al. 2008).”

hippocampal neurons [2] = assay: Whole-cell recordings of AMPA-mediated mEPSCs; format: cell-based, rat; details: HGF 10 ng/ml, 5 days (Example 2)
c-Met receptor = assay: c-Met phosphorylation in acute adult rat hippocampal slices; format: cell-based; details: 30 minutes
Text: Adult Sprague-Dawley rats (250 g+) obtained from Harlan Laboratories (Ca, USA) were anesthetized with isofluorane (Vet One™, MWI, Meridian, Id., USA) and decapitated. The brain was rapidly removed and placed into ice-chilled artificial cerebrospinal fluid (aCSF) for approximately 30 s. Both hemispheres were separated by a mid-saggital cut and both hippocampi removed. Slices were sectioned cross- and length-wise (400 μm) to ensure penetrability of the drug, using a McIlwain tissue chopper (Brinkmann, Gomshall, UK) and transferred to a gassed (95% O2/5% CO2) incubation chamber containing aCSF for 90 minutes at room temperature. […]
Protein concentration of the samples was quantified using the BCA method (Pierce, Rockford, Ill.) following the manufacturers protocol. […]

HGF: carrier free adult recombinant Hepatocyte Growth Factor (R and D Systems)
mean spine numbers (hippocampal neurons [1]; HGF 2.5 ng/ml): 18.6 and 16.5
mean spine numbers (hippocampal neurons [1]; HGF 5 ng/ml): 24.7
mean spine numbers per 50 μm dendrite length (hippocampal neurons [1]; HGF 10 ng/ml): 27.5 and 33 and 29.3
mean spine numbers (hippocampal neurons [1]; HGF 20 ng/ml): 27.0
mean frequency of mEPSCs (hippocampal neurons [2]): 7.09±0.53 and 9.66±0.20
c-Met phosphorylation vs control (aCSF) slices (c-Met receptor; HGF 50 ng/ml (non-saturating)): not statistically different from control treated slices
c-Met phosphorylation vs control (aCSF) slices (c-Met receptor; HGF 100 ng/ml (saturating)): increased c-Met phosphorylation
